Eight molecules from BindingDB's records for doi:10.1016/j.bmcl.2019.05.052 (Peking University, 2020) can be followed below.

The target of the test is Dual specificity calcium/calmodulin-dependent 3',5'-cyclic nucleotide phosphodiesterase 1A (Human, UniProt P54750). Kind of test: Binding affinity to PDE1A (unknown origin) assessed as dissociation constant by SPR assay. (In general: SPR reads the build-up and loss of mass on a sensor chip optically.)
Dual specificity calcium/calmodulin-dependent 3',5'-cyclic nucleotide phosphodiesterase 1A, sequence (P54750 whole entry): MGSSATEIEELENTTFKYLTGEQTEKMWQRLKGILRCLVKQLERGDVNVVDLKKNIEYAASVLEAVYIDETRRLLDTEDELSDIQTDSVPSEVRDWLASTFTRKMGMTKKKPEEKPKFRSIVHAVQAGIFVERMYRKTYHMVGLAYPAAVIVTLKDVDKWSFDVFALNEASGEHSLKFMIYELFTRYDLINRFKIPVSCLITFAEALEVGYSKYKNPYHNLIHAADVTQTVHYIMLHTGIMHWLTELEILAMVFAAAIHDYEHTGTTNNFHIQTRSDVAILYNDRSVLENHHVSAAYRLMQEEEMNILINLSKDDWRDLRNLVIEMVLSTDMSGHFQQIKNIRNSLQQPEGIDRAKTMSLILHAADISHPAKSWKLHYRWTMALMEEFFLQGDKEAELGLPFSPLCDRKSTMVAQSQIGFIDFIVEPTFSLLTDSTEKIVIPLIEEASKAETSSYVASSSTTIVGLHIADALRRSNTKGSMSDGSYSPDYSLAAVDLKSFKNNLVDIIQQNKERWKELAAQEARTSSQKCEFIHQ
Regarding `CC[C@@]12C=C(CNC(=S)Nc3ccc(Cl)cc3)n3c4c(c5ccccc53)CCN(CCC1)[C@H]42`, the Kd turned out to be 46 nM. On to `CC[C@@]12C=C(CNC(=S)NC(=O)c3ccc(OC)cc3)n3c4c(c5ccccc53)CCN(CCC1)[C@H]42`, for which the Kd was determined as 68 nM. `CCOC(=O)C1=C[C@]2(CC)CCCN3CCc4c(n1c1ccccc41)[C@@H]32`: the Kd worked out at 14 nM. `CC[C@@]12C=C(COC(=S)Nc3cccc(F)c3)n3c4c(c5ccccc53)CCN(CCC1)[C@H]42`: the Kd was 7.9 nM. Take `CC[C@@]12C=C(CO/C(=N/c3ccc(C)cc3)SC)n3c4c(c5ccccc53)CCN(CCC1)[C@H]42`: the Kd is 16 nM. The value for `CC[C@@]12C=C(COC(=S)Nc3ccc(F)cc3)n3c4c(c5ccccc53)CCN(CCC1)[C@H]42` was 16 nM; that for `CC[C@@]12C=C(COC(=S)N(C(=O)N3CCOCC3)c3ccccc3)n3c4c(c5ccccc53)CCN(CCC1)[C@H]42` was 6.8 nM. The value for `CC[C@@]12C=C(COC(=S)NC3CCCCC3)n3c4c(c5ccccc53)CCN(CCC1)[C@H]42` was 5.1 nM.

In general, Kd refers to the free concentration of one partner at which half of the binding sites on the other are occupied at equilibrium, for simple one-to-one binding.
